The test system of the experiment is FoxO3a. Description: FoxO3a inhibition assay (GFP-FoxO3a nuclear to cytoplasmic translocation) in U2OS GFP-FoxO3a H212R reporter cells. The experiment is classed as cell-based. The settings on record: Homo sapiens, 0.5 h, serum starved overnight, 30 minutes compound treatment, ratio of nuclear to cytosolic GFP intensity, AC50 = concentration that results in 50% activation or inhibition, read-out: FoxO AC50. Here is the method: Phosphorylation of Akt on S473 and FoxO3a nuclear to cytoplasmic translocation were used as readouts of PI3K/Akt/mTOR pathway activation downstream of growth factor signaling.
Reporter cell line. U2OS GFP-FoxO3a H212R reporter cell line was established by transducing U2OS cells with the retroviral plasmid pLEGFP-C1 containing FoxO3a H212R transgene and selecting for G418 resistant clones.
Reporter assay. U2OS GFP-FoxO3a H212R cells were plated in 384-well plates at 4000 cells per well in 30 microliters of McCoy's 5A medium containing 10% FBS. On day 1 the cells were washed with serum free medium and serum starved overnight. On day 2 the cells were treated with different doses of the compounds for 30 minutes, fixed with 4% Paraformaldehyde for 1 hour and stained with Phospho-AKT (Ser473) antibody (Cell Signaling Technology, catalog #4060) overnight at 4° C. After nuclei staining with Hoechst 33342 (Life Technologies, catalog # H3570) the plates were imaged with InCell 2000 (GE Healthcare Bio-Sciences). FoxO3a inhibition activity is calculated as the ratio of nuclear to cytosolic GFP intensity in percent. Akt activation is measured as the total cellular intensity of Phospho-Akt antibody staining in percent. DMSO control is set as 0% activity.
For the compound `Cc1nnc(-c2cccc(-c3ccc(Cc4ccc(-n5nc(C(N)=O)cc5C)cc4)cc3)c2)o1` [Example 3-7, 5-methyl-1-(4-((3′-(5-methyl-1,3,4-oxadiazol-2-yl)-[1,1′-biphenyl]-4-yl)methyl)phenyl)-1H-pyrazole-3-carboxamide], the AC50 (as a rule, the concentration at which the activity in the assay is half-maximal) stood at 499 nM.
As for `Cc1cc(C(N)=O)nn1-c1ccc(Cc2ccc(-c3ccc(C(=O)N4CCNCC4)cn3)cc2)cc1` [Example 27, 5-methyl-1-(4-(4-(5-(piperazine-1-carbonyl)pyridin-2-yl)benzyl)phenyl)-1H-pyrazole-3-carboxamide], the concentration at half-maximal activity (AC50) worked out at 213 nM.
The same measure for `Cc1cc(C(N)=O)nn1-c1ccc(Cc2ccc(-c3ccc(CN4CCN(C5COC5)CC4)cn3)cc2)cc1` [Example 33, 5-methyl-1-(4-(4-(5-((4-(oxetan-3-yl)piperazin-1-yl)methyl)pyridin-2-yl)benzyl)phenyl)-1H-pyrazole-3-carboxamide]: 138 nM.
For `Cc1nc(C(N)=O)nn1-c1ccc(Cc2ccc(-c3ccc(CN4CCN[C@@H](C)C4)nc3)cc2)cc1` [Example 36, (S)-5-methyl-1-(4-(4-(6-((3-methylpiperazin-1-yl)methyl)pyridin-3-yl)benzyl)phenyl)-1H-1,2,4-triazole-3-carboxamide], the concentration at half-maximal activity (AC50) was 183 nM.
For `Cc1nc(C(N)=O)nn1-c1ccc(Cc2ccc(-c3ccc(CN4CCC5(COC5)C4)cc3)cc2)cc1` [Example 38-1, 1-(4-((4′-((2-oxa-6-azaspiro[3.4]octan-6-yl)methyl)-[1,1′-biphenyl]-4-yl)methyl)phenyl)-5-methyl-1H-1,2,4-triazole-3-carboxamide], the AC50 was 2 nM.
Regarding `Cc1nc(C(N)=O)nn1-c1ccc(Cc2ccc(-c3ccc(CN4C[C@H]5CN(C)C[C@H]5C4)cc3)cc2)cc1` [Example 38-3], the AC50 worked out at 35 nM.
Consider `Cc1nc(C(N)=O)nn1-c1ccc(Cc2ccc(-c3ccc(CN4CCCC5(COC5)C4)cc3)cc2)cc1` [Example 38-6], for which the AC50 came out at 74 nM.
For `Cc1nc(C(N)=O)nn1-c1ccc(Cc2ccc(-c3ccc(CN4CCC(N(C)C)CC4)cc3)cc2)cc1` [Example 39-2] the value was 5 nM; for `Cc1nc(C(N)=O)nn1-c1ccc(Cc2ccc(-c3ccc(CN4CCCC(C(C)(C)O)C4)cc3)cc2)cc1` (centres unmarked) [Example 39-7], 29 nM; for `Cc1nc(C(N)=O)nn1-c1ccc(Cc2ccc(-c3ccc(CN4CC(O)C4)cc3)cc2)cc1` [Example 39-8], 864 nM.
In the case of `Cc1nc(C(N)=O)nn1-c1ccc(Cc2ccc(-c3ccc(CN4C[C@@H](C)N[C@H](C)C4)cc3)cc2)cc1` [Example 39-9], the AC50 is 123 nM.
`Cc1nc(C(N)=O)nn1-c1ccc(Cc2ccc(-c3ccc(CN4CCC(C)(O)C4)cc3)cc2)cc1` (centres unmarked) [Example 39-10]: the concentration at half-maximal activity (AC50) was 13 nM.
For `Cc1nc(C(N)=O)nn1-c1ccc(Cc2ccc(-c3ccc(CN4CC5(CCCO5)C4)cc3)cc2)cc1` [Example 39-11] the value was 241 nM.
Consider `Cc1nc(C(N)=O)nn1-c1ccc(Cc2ccc(-c3ccc(CN4CCN[C@@H](CO)C4)cc3)cc2)cc1` [Example 39-12], for which the AC50 was found to be 181 nM.
The same measure for `Cc1nc(C(N)=O)nn1-c1ccc(Cc2ccc(-c3ccc(CN4CC[C@@H](F)C4)cc3)cc2)cc1` [Example 39-13]: 79 nM; for `Cc1nc(C(N)=O)nn1-c1ccc(Cc2ccc(-c3ccc(CN4CCC(S(C)(=O)=O)C4)cc3)cc2)cc1` (centres unmarked) [Example 39-14]: 54 nM.
Turning to `Cc1nc(C(N)=O)nn1-c1ccc(Cc2ccc(-c3ccc(CN4CCC5CN(C)CC54)cc3)cc2)cc1` (centres unmarked) [Example 39-15], the AC50 was determined as 5 nM.
For `Cc1nc(C(N)=O)nn1-c1ccc(Cc2ccc(-c3ccc(CN4CCCC(C)(O)C4)cc3)cc2)cc1` (centres unmarked) [Example 39-16] the value was 56 nM; for `Cc1nc(C(N)=O)nn1-c1ccc(Cc2ccc(-c3ccc(CN4CCN(C(C)(C)C)CC4)cc3)cc2)cc1` [Example 39-17], 85 nM; for `Cc1nc(C(N)=O)nn1-c1ccc(Cc2ccc(-c3ccc(CN4CCNC(C)(C)C4)cc3)cc2)cc1` [Example 39-18], 81 nM.

The values are drawn from patent US10633350B2, “Diphenyl derivatives and uses thereof” (NOVARTIS AG, priority 2017, dated 2020).
